Experimental data from patent publication US20240252529A1, “ANTIVIRAL PHARMACEUTICAL COMPOSITION” (MARINOMED BIOTECH AG, priority 2020, published 2024).

Test system: SARS-CoV-2 spike glycoprotein pseudotyped lentivirus
Format: cell-based
Conditions: comparative polymers at 100 μg/ml; FIG. 3

O=C[C@H](O)[C@@H](O)[C@@H](OS(=O)(=O)O)[C@H](O)CO [Gal-4-SO4, galactose-4-sulphate]
protection of target cells against infection: only poorly effective
